# Experimental data published in patent US6737383B1, “Herbicidal oxadiazolidines” (priority 1999, dated 2004).
# Columns and labels:
# sugar beet = experiment: Test B pre/postemergence sugar beet; assay type: in vivo, Beta vulgaris; details: for Plant response rating, Sugarbeets: Rate 250 g/ha
# From the text: (§1) Seeds of bedstraw (Galium aparine), blackgrass (Alopecurus myosuroides), surinam grass (Brachiaria decumbens), cocklebur (Xanthium strumarium), corn (Zea mays), crabgrass (Digitaria sanguinalis), giant foxtail (Setaria faberii), morningglory (Ipomoea hederacea), pigweed (Amaranthus retroflexus), rape (Brassica napus), soybean (Glycine max), sugar beet (Beta vulgaris), velvetleaf (Abutilon theophrasti), wheat (Triticum aestivum), wild oat (Avena fatua) and purple nutsedge (Cyperus rotundus) tubers were planted and treated preemnergence with test chemicals formulated in a non-phytotoxic solvent mixture which included a surfactant.
# (§2) At the same time, these crop and weed species were also treated with postemergence applications of test chemicals formulated in the same manner. Plants ranged in height from 2 to 18 cm (1- to 4-leaf stage) for postemergence treatments. Plant species in the flood test consisted of rice (Oryza sativa), smallflower flatsedge (Cyperus difformis), duck salad (Heteranthera limosa) and bamyardgrass (Echinochloa crus-galli) grown to the 2-leaf stage for testing. Treated plants and controls were maintained in a greenhouse for twelve to sixteen days, after which all species were compared to controls and visually evaluated. Plant response ratings, summarized in Table B, are based on a scale of 0 to 10 where 0 is no effect and 10 is complete control. A dash (−) response means no test result.
# surinam grass = experiment: Test B pre/postemergence surinam grass; assay type: in vivo, Brachiaria decumbens
# From the text: as §1, §2
# crabgrass = experiment: Test B pre/postemergence crabgrass; assay type: in vivo, Digitaria sanguinalis
# From the text: as §1, §2
# cocklebur = experiment: Test B pre/postemergence cocklebur; assay type: in vivo, Xanthium strumarium
# From the text: as §1, §2
# giant foxtail = experiment: Test B pre/postemergence giant foxtail; assay type: in vivo, Setaria faberii
# From the text: as §1, §2
# soybean = experiment: Test B pre/postemergence soybean; assay type: in vivo, Glycine max
# From the text: as §1, §2
# rape = experiment: Test B pre/postemergence rape; assay type: in vivo, Brassica napus
# From the text: as §1, §2
# wild oat = experiment: Test B pre/postemergence wild oat; assay type: in vivo, Avena fatua; details: for Plant response rating, Wild oats: Rate 250 g/ha
# From the text: as §1, §2
# morningglory = experiment: Test B pre/postemergence morningglory; assay type: in vivo, Ipomoea hederacea
# Summary of the method: (§3)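 Response is a visual 0-to-10 score relative to untreated plants, where 0 means no effect and 10 means complete control, taken twelve to sixteen days after application. Treatments went onto soil at planting and onto foliage of 1- to 4-leaf plants, using a surfactant-containing non-phytotoxic solvent.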
# pigweed = experiment: Test B pre/postemergence pigweed; assay type: in vivo, Amaranthus retroflexus
# From the text: as §1, §2
# velvetleaf = experiment: Test B pre/postemergence velvetleaf; assay type: in vivo, Abutilon theophrasti; details: for Plant response rating, Velvetleaf: Rate 250 g/ha
# From the text: as §1, §2
# blackgrass = experiment: Test B pre/postemergence blackgrass; assay type: in vivo, Alopecurus myosuroides
# From the text: as §1, §2
# bedstraw = experiment: Test B pre/postemergence bedstraw; assay type: in vivo, Galium aparine
# Summary of the method: as §3
# wheat = experiment: Test B pre/postemergence wheat; assay type: in vivo, Triticum aestivum; details: for Plant response rating, Wheat: Rate 250 g/ha
# From the text: as §1, §2
# purple nutsedge = experiment: Test B pre/postemergence purple nutsedge; assay type: in vivo, Cyperus rotundus
# From the text: as §1, §2
# corn = experiment: Test B pre/postemergence corn; assay type: in vivo, Zea mays
# From the text: as §1, §2
# [1] = Postemergence, Rate 125 g/ha, scale of 0 to 10 where 0 is no effect and 10 is complete control
# [2] = Preemergence, Rate 62 g/ha, scale 0 to 10 (0 no effect, 10 complete control)
# [3] = Preemergence, Rate 125 g/ha, 0 is no effect, 10 is complete control
# [4] = Preemergence, scale of 0 to 10 where 0 is no effect and 10 is complete control
# [5] = Preemergence, Rate 500 g/ha, scale 0 to 10 (0 no effect, 10 complete control)
# [6] = Rate 62 g/ha, Postemergence, scale of 0 to 10 where 0 is no effect and 10 is complete control
# [7] = Postemergence, scale 0 to 10, 0 is no effect, 10 is complete control
# [8] = Rate 500 g/ha, Postemergence, scale 0 to 10, 0 no effect, 10 complete control
# [9] = Postemergence, Rate 250 g/ha, scale 0 to 10, 0 no effect, 10 complete control
# [10] = Preemergence, Rate 125 g/ha, scale 0 to 10 (0 no effect, 10 complete control)
# [11] = Preemergence, Rate 250 g/ha, scale of 0 to 10 where 0 is no effect and 10 is complete control
# [12] = Rate 250 g/ha, Postemergence, scale 0 to 10, 0 is no effect, 10 is complete control
smiles,measurement,setting,value
COc1ccccc1Cn1c(=O)on(C(=O)N(c2ccccc2)C(C)C)c1=O [Compound 104],Sugarbeets plant response rating,sugar beet; [1],1
same,Sugarbeets plant response rating,sugar beet; [2],0
same,Sugarbeets plant response rating (0 to 10 scale),sugar beet; [3],0
same,"Plant response rating, Sugarbeets",sugar beet; [4],1
same,Sugarbeets plant response rating,sugar beet; [5],6
same,Sugarbeets plant response rating,sugar beet; [6],0
same,"Plant response rating, Sugarbeets",sugar beet; [7],1
same,Sugarbeets plant response rating,sugar beet; [8],3
same,B. signalgrass plant response rating,"surinam grass; Postemergence, Rate 62 g/ha, scale 0 to 10, 0 is no effect, 10 is complete control",0
same,B. signalgrass plant response rating,surinam grass; [9],0
same,B. signalgrass plant response rating,surinam grass; [2],0
same,"Plant response rating, B. signalgrass",surinam grass; [10],0
same,"Plant response rating, B. signalgrass",surinam grass; [11],5
same,B. signalgrass plant response rating,surinam grass; [5],6
same,B. signalgrass plant response rating,"surinam grass; Rate 125 g/ha, Postemergence, scale 0 to 10, 0 no effect, 10 complete control",0
same,B. signalgrass plant response rating,"surinam grass; Rate 500 g/ha, Postemergence, scale of 0 to 10 where 0 is no effect and 10 is complete control",0
same,Crabgrass plant response rating,crabgrass; [1],4
same,Crabgrass plant response rating,crabgrass; [9],5
same,Crabgrass plant response rating,crabgrass; [2],0
same,"Plant response rating, Crabgrass",crabgrass; [10],0
same,"Plant response rating, Crabgrass",crabgrass; [11],1
same,Crabgrass plant response rating,crabgrass; [5],9
same,Crabgrass plant response rating,crabgrass; [6],0
same,Crabgrass plant response rating,crabgrass; [8],8
same,Cocklebur plant response rating,cocklebur; [1],0
same,Cocklebur plant response rating,cocklebur; [9],2
same,"Plant response rating, Cocklebur",cocklebur; [10],0
same,"Plant response rating, Cocklebur",cocklebur; [11],0
same,Cocklebur plant response rating,cocklebur; [5],0
same,Cocklebur plant response rating,cocklebur; [6],0
same,Cocklebur plant response rating,cocklebur; [8],3
same,Giant foxtail plant response rating,giant foxtail; [1],3
same,Giant foxtail plant response rating,giant foxtail; [9],4
same,Giant foxtail plant response rating,giant foxtail; [2],0
same,"Plant response rating, Giant foxtail",giant foxtail; [10],4
same,"Plant response rating, Giant foxtail",giant foxtail; [11],10
same,Giant foxtail plant response rating,giant foxtail; [5],10
same,Giant foxtail plant response rating,giant foxtail; [6],3
same,Giant foxtail plant response rating,giant foxtail; [8],8
same,Soybean plant response rating,soybean; [1],5
same,Soybean plant response rating,soybean; [2],0
same,"Plant response rating, Soybean",soybean; [10],0
same,"Plant response rating, Soybean",soybean; [11],0
same,Soybean plant response rating,soybean; [5],0
same,Soybean plant response rating,soybean; [6],4
same,"Plant response rating, Soybean",soybean; [12],5
same,Soybean plant response rating,soybean; [8],5
same,Rape plant response rating,rape; [1],0
same,Rape plant response rating,rape; [9],0
same,Rape plant response rating,rape; [2],0
same,"Plant response rating, Rape",rape; [10],0
same,"Plant response rating, Rape",rape; [11],0
same,Rape plant response rating,rape; [5],0
same,Rape plant response rating,rape; [6],0
same,Rape plant response rating,rape; [8],2
same,Wild oats plant response rating,wild oat; [1],0
same,Wild oats plant response rating,wild oat; [2],0
same,Wild oats plant response rating (0 to 10 scale),wild oat; [3],2
same,"Plant response rating, Wild oats",wild oat; [4],4
same,Wild oats plant response rating,wild oat; [5],7
same,Wild oats plant response rating,wild oat; [6],0
same,"Plant response rating, Wild oats",wild oat; [7],0
same,Wild oats plant response rating,wild oat; [8],2
same,Morningglory plant response rating,morningglory; [1],10
same,Morningglory plant response rating,morningglory; [9],10
same,Morningglory plant response rating,morningglory; [2],0
same,"Plant response rating, Morningglory",morningglory; [10],0
same,"Plant response rating, Morningglory",morningglory; [11],0
same,Morningglory plant response rating,morningglory; [5],0
same,Morningglory plant response rating,morningglory; [6],10
same,Morningglory plant response rating,morningglory; [8],10
same,Redroot pigweed plant response rating,pigweed; [1],3
same,Redroot pigweed plant response rating,pigweed; [2],0
same,"Plant response rating, Redroot pigweed",pigweed; [10],0
same,"Plant response rating, Redroot pigweed",pigweed; [11],0
same,Redroot pigweed plant response rating,pigweed; [5],4
same,Redroot pigweed plant response rating,pigweed; [6],1
same,"Plant response rating, Redroot pigweed",pigweed; [12],3
same,Redroot pigweed plant response rating,pigweed; [8],7
same,Velvetleaf plant response rating,velvetleaf; [1],0
same,Velvetleaf plant response rating,velvetleaf; [2],0
same,Velvetleaf plant response rating (0 to 10 scale),velvetleaf; [3],0
same,"Plant response rating, Velvetleaf",velvetleaf; [4],0
same,Velvetleaf plant response rating,velvetleaf; [5],0
same,Velvetleaf plant response rating,velvetleaf; [6],0
same,"Plant response rating, Velvetleaf",velvetleaf; [7],3
same,Velvetleaf plant response rating,velvetleaf; [8],3
same,Blackgrass plant response rating,blackgrass; [1],0
same,Blackgrass plant response rating,blackgrass; [9],5
same,Blackgrass plant response rating,blackgrass; [2],0
same,"Plant response rating, Blackgrass",blackgrass; [10],3
same,"Plant response rating, Blackgrass",blackgrass; [11],6
same,Blackgrass plant response rating,blackgrass; [5],7
same,Blackgrass plant response rating,blackgrass; [6],0
same,Blackgrass plant response rating,blackgrass; [8],6
same,Bedstraw plant response rating,bedstraw; [2],0
same,"Plant response rating, Bedstraw",bedstraw; [10],0
same,"Plant response rating, Bedstraw",bedstraw; [11],0
same,Bedstraw plant response rating,bedstraw; [5],0
same,Bedstraw plant response rating,bedstraw; [8],6
same,Wheat plant response rating,wheat; [1],0
same,Wheat plant response rating,wheat; [2],0
same,Wheat plant response rating (0 to 10 scale),wheat; [3],0
same,"Plant response rating, Wheat",wheat; [4],0
same,Wheat plant response rating,wheat; [5],4
same,Wheat plant response rating,wheat; [6],0
same,"Plant response rating, Wheat",wheat; [7],0
same,Wheat plant response rating,wheat; [8],0
same,Nutsedge plant response rating,purple nutsedge; [1],0
same,Nutsedge plant response rating,purple nutsedge; [9],0
same,Nutsedge plant response rating,purple nutsedge; [2],0
same,"Plant response rating, Nutsedge",purple nutsedge; [10],0
same,"Plant response rating, Nutsedge",purple nutsedge; [11],0
same,Nutsedge plant response rating,purple nutsedge; [5],0
same,Nutsedge plant response rating,purple nutsedge; [6],0
same,Nutsedge plant response rating,purple nutsedge; [8],0
same,Corn plant response rating,corn; [1],0
same,Corn plant response rating,corn; [9],0
same,Corn plant response rating,corn; [2],0
same,"Plant response rating, Corn",corn; [10],0
same,"Plant response rating, Corn",corn; [11],0
same,Corn plant response rating,corn; [5],2
same,Corn plant response rating,corn; [6],0
same,Corn plant response rating,corn; [8],0
